Measured values from article PMC10112232, “Comparison of Toxicities among Different Bumped Kinase Inhibitor Analogs for Treatment of Cryptosporidiosis” (Antimicrobial Agents and Chemotherapy, 2023).
Like-named read-outs stand apart in the source and are kept apart here.

Assays:
[1] = tested on: Nluc expressing C. parvum; design: method as in PMID 30830766; conditions: IFN-γ KO mice, twice daily (BID) for 5 days; cited from earlier work
[2] = Plasma levels and toxicity signs in treated piglets; type: in vivo, piglet; conditions: for Cmax: pig, plasma, 5 mg/kg, 5 mg/kg BID
[3] = design: method as in PMID 30830766; conditions: mice; cited from earlier work
[4] = cited from earlier work; for HR / MAP / dP/dt@50: rat
C. hominis = experiment: Efficacy in neonatal gnotobiotic piglets infected with C. hominis; type: in vivo; conditions: 5 mg/kg BID
Procedure: Rectal swabs were processed for oocyst count and DNA measurement. The plot represents mean ± SEM. Wilcoxon matched-pairs signed rank test was conducted using GraphPad Prism 7.03. […] The 5 day doses were given on days 0–4, the 8 day doses were given on days 0–7.
(§1) Methods for synthesis of BKIs ([17], [23]), efficacy against Nluc expressing C. parvum in infected adult IFN-γ KO mice ([6], [9]), in vivo mouse GI tract tissue exposure by LC/MS-MS analysis ([18], [28]), PK analysis of mouse plasma and brain tissue BKI concentrations by LC/MS-MS analysis ([29]), in vivo rat and dog cardiotoxicity screen ([30]), efficacy against IOWA-II strain C. parvum in infected neonatal calves ([13]), efficacy against C. hominis in infected piglets ([12]), in vitro inhibition of C. parvum CDPK1 (CpCDPK1) and human tyrosine kinase SRC (HsSRC) activity ([31]), in vitro inhibition of hERG ([32]), Nluc expressing C. parvum in vitro growth inhibition in infected HCT-8 cells ([6]), in vitro cytotoxicity in CRL-8155 and HepG2 cells ([29]), and mouse locomotor activity box ([33], [34]) have all been previously described. Analytes were measured by LC/MS-MS on an Acquity ultra performance liquid chromatography (UPLC) system in tandem with a Xevo TQ-S mass spectrometer (Waters, Milford, MA, USA).

[5] = Metabolite identification in hepatocytes; type: in vitro ADME, mice, rats, dogs, monkeys, and humans; conditions: all tested species, product 1770-O-glucuronide
Procedure: BKI-1841 was also evaluated in these assays (Table 1). All results from these assays were favorable, including falling within the solubility range that correlated with efficacy for the AC scaffold ([17]).

[6] = In vitro cytotoxicity in CRL-8155 cells; type: cell-based; conditions: human
Description: as §1

hERG = hERG (Homo sapiens, UniProt Q12809); experiment: In vitro inhibition of hERG; type: biochemical
Description: as §1

[7] = tested on: Nluc expressing C. parvum; experiment: Nluc expressing C. parvum in vitro growth inhibition in infected HCT-8 cells; type: cell-based; conditions: Cryptosporidium parvum
Description: as §1

[8] = target: T1, C. parvum calcium dependent protein kinase 1 (CpCDPK1) (Cryptosporidium parvum, UniProt A3FQ16); experiment: In vitro inhibition of CpCDPK1; type: biochemical
T1 sequence (A3FQ16 1-538): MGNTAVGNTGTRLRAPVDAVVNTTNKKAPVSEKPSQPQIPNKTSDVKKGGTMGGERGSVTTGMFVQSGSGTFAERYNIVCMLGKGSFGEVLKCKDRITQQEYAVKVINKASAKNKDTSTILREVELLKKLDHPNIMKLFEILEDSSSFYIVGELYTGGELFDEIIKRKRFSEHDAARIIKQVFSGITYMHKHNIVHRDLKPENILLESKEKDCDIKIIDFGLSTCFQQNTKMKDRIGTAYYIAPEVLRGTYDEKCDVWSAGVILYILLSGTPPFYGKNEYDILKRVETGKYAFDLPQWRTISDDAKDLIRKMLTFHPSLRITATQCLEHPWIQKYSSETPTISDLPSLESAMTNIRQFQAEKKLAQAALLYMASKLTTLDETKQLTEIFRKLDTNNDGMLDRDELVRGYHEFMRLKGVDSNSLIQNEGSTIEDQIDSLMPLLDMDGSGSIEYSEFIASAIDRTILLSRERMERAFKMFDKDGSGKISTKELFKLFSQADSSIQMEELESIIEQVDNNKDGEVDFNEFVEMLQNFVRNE
Description: as §1

[9] = In vitro cytotoxicity in HepG2 cells; type: cell-based; conditions: human
Description: as §1

[10] = target: human tyrosine kinase SRC (HsSRC) (Homo sapiens, UniProt P12931); experiment: In vitro inhibition of HsSRC; type: biochemical; conditions: read-out: HsSR IC50
Description: as §1

[11] = Cardiovascular testing in anesthetized rats; type: in vivo, rat; conditions: for HR / MAP / dP/dt@50: rat
Description: as §1

[12] = anesthetized rats, 30-minute IV infusions of 3, 10, 30 mg/kg, significant >15%

Chain of hERG (Q12809 whole entry): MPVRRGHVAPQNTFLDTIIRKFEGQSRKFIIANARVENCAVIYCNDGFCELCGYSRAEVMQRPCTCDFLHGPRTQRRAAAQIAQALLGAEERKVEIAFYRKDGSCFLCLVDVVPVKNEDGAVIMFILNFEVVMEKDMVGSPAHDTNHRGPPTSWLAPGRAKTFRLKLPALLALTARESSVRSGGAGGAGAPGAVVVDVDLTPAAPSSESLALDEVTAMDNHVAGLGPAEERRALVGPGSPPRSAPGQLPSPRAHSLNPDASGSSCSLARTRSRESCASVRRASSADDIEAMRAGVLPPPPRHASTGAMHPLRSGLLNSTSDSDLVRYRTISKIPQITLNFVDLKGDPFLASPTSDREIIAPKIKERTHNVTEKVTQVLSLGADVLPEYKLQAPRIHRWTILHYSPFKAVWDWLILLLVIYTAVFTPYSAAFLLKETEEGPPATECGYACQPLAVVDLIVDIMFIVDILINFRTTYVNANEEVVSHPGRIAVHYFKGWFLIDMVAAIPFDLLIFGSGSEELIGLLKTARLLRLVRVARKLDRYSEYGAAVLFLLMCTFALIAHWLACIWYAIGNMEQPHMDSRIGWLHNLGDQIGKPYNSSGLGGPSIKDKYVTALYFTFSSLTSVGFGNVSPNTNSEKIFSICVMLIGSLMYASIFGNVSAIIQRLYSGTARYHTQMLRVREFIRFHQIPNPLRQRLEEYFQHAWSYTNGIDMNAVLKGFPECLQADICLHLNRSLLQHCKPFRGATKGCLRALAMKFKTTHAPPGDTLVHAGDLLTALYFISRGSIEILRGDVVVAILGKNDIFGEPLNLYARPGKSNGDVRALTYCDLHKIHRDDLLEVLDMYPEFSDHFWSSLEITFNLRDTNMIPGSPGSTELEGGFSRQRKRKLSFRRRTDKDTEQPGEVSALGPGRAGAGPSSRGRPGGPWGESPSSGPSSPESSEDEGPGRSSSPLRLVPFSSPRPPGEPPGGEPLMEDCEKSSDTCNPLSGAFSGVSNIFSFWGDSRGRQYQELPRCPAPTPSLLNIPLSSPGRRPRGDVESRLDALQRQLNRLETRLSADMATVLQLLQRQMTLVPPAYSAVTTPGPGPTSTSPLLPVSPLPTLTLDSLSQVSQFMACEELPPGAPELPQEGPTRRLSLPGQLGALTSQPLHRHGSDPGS
Chain of human tyrosine kinase SRC (HsSRC) (P12931 whole entry): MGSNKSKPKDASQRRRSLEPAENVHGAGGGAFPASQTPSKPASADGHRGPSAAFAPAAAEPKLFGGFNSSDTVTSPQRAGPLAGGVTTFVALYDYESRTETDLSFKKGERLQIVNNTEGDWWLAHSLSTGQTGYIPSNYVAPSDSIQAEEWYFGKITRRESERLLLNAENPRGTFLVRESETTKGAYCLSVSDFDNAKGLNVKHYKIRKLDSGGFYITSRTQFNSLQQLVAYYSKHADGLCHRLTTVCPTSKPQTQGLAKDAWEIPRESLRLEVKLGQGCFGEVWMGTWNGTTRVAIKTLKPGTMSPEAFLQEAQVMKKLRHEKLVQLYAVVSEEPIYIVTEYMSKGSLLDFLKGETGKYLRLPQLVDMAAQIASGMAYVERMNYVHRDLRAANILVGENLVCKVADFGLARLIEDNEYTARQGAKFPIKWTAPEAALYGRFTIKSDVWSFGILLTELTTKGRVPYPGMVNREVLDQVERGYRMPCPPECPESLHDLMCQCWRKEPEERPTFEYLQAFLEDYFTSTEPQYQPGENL

**Q.** Which minimum efficacious dose [1] does the source give for `CCOc1ccc2cc(-c3nn(C(C)(C)CCO)c(N)c3C(N)=O)ccc2c1` [BKI-1770] here?
**A.** 30 mg/kg

**Q.** And the “visible signs of toxicity” value ([2]; 5 mg/kg BID for 5 or 8 days)?
**A.** no visible signs of toxicity

**Q.** What about the Cmax ([2]; at 2 h post dose 5, read-out: plasma observed Cmax) of the same compound?
**A.** 2100 ± 1400 nM

**Q.** And the Cmax ([2]; at 2 h post dose 8, read-out: plasma observed Cmax)?
**A.** 900 ± 400 nM

**Q.** What about the “blood chemistry and histology vs control animals” value [3] of the same compound?
**A.** no apparent abnormalities

**Q.** And the “effects on MAP, HR, left ventricular contractility vs vehicle” value [4, 12]?
**A.** No significant effects

**Q.** What about the HR ([4]; IV 3 mg/kg) of the same compound?
**A.** 8%

**Q.** And the MAP ([4]; IV 3 mg/kg)?
**A.** -7%

**Q.** And the “dP/dt@50” value ([4]; IV 3 mg/kg)?
**A.** 0%

**Q.** What about the HR ([4]; IV 10 mg/kg) of the same compound?
**A.** 8%

**Q.** What about the MAP ([4]; IV 10 mg/kg) of the same compound?
**A.** 5%

**Q.** And the “dP/dt@50” value ([4]; IV 10 mg/kg)?
**A.** 9%

**Q.** What about the HR ([4]; IV 30 mg/kg) of the same compound?
**A.** 3%

**Q.** And the MAP ([4]; IV 30 mg/kg)?
**A.** -7%

**Q.** What about the “dP/dt@50” value ([4]; IV 30 mg/kg) of the same compound?
**A.** 8%

**Q.** What about the signs of cardiotoxicity ([4]; rats) of the same compound?
**A.** no signs of cardiotoxicity

**Q.** What about the “oocyst counts in feces vs controls” value (C. hominis; 5-day treatment (P = 0.001)) of the same compound?
**A.** significantly reduced

**Q.** What about the “oocyst counts in feces vs controls” value (C. hominis; 8-day treatment (P = 0.0168)) of the same compound?
**A.** significantly reduced

**Q.** And the diarrhea scores (C. hominis; both 5- and 8-day treatment groups)?
**A.** significantly reduced

**Q.** And the “main mechanism of metabolism” value [5]?
**A.** glucuronylation

**Q.** For `CCOc1ccc2cc(-c3nn(C4CCOCC4)c(N)c3C(N)=O)ccc2n1` [BKI-1841], which CC50 [6] is on record?
**A.** > 80 µM

**Q.** What about the IC50 (hERG) of the same compound?
**A.** > 30 µM

**Q.** And the EC50 [7]?
**A.** 0.7 µM

**Q.** What about the IC50 [8] of the same compound?
**A.** 0.003 µM

**Q.** And the CC50 [9]?
**A.** > 80 µM

**Q.** And the IC50 [10]?
**A.** > 10 µM

**Q.** What about the “effects on MAP, HR, left ventricular contractility vs vehicle” value [11, 12] of the same compound?
**A.** No significant effects

**Q.** And the HR ([11]; IV 3 mg/kg)?
**A.** 5%

**Q.** What about the MAP ([11]; IV 3 mg/kg) of the same compound?
**A.** 1%

**Q.** What about the “dP/dt@50” value ([11]; IV 3 mg/kg) of the same compound?
**A.** 3%

**Q.** And the HR ([11]; IV 10 mg/kg)?
**A.** 3%

**Q.** What about the MAP ([11]; IV 10 mg/kg) of the same compound?
**A.** 3%

**Q.** What about the “dP/dt@50” value ([11]; IV 10 mg/kg) of the same compound?
**A.** 4%

**Q.** What about the HR ([11]; IV 30 mg/kg) of the same compound?
**A.** 0%

**Q.** And the MAP ([11]; IV 30 mg/kg)?
**A.** 2%

**Q.** What about the “dP/dt@50” value ([11]; IV 30 mg/kg) of the same compound?
**A.** 11%
